Where two headings read alike, the source gives them in different places.
Columns and labels:
[1] = system: bovine cerebral cortex capillary endothelial cells; experiment: Inhibition of rb-FGF-stimulated capillary endothelial cell proliferation (in vitro test); type: cell-based; settings: 1 ng/ml rb-FGF, cell counting 5 days after addition of test product, read-out: IC50 (50% inhibition of cell proliferation)
Protocol: A nutrient medium (Dulbecco's modified Eagle medium-DMEM), supplemented with fetal calf serum (concentration: 5% V/V) and containing glutamine (4 mM), penicillin (100 U/ml) and streptomycin sulphate (100 μg/ml), is introduced into 1-ml wells and innoculated with bovine cerebral cortex capillary endothelial cells (20×10^3 cells/ml), isolated and cultured as described by D. Gospodarowicz et al. in J. Cell. Physiol. 127, p. 121-136 (1986).
As soon as cell adhesion has taken place, 1 ng/ml of recombinant bovine basic fibroblast growth factor (rb-FGF), marketed by Amersham, a known factor for the stimulation of angiogenesis in vivo, is added, followed by the test solutions.
Cell counting is performed 5 days after the addition of 20 μl of a solution of the test products in dimethyl sulphoxide such that their final concentration in the medium is between 10^-4 and 10^-8 M; the control wells receive 20 μl of solvent.
From the results obtained for several concentrations of each of the test products, the concentration at which the latter produce a 50% inhibition of cell proliferation is calculated in a conventional manner.

[2] = system: angiogenic response induced by fibrin gels; settings: rat
Protocol: (§1) Perforated Plexiglas chambers containing a fibrin gel, obtained by polymerisation of rat fibrinogen in the presence of thrombin, are implanted subcutaneously in rats.
The test products, suspended in absolute alcohol and 5% gum arabic (10 ml/kg), are administered orally to the rats at doses of 5 and 25 mg/kg/day for the compounds of Examples 3 and 4, for 5 days before implantation and up to the time of removal of the chambers. After 14 days, a granulation outgrowth is formed, and the chambers are removed in order to observe the height of the granulation outgrowth anchored in the matrix and the quantity of newly-formed vessels which have appeared.
(§2) The inhibition of the angiogenic response was evaluated by:
(§3) (i) the height and diameter of the granulation outgrowths,
(§4) (ii) the number of newly-formed vessels per outgrowth and their localisation,
(§5) (iii) the quality of the granulation tissue.

[3] = system: angiogenic response induced by fibrin gels; settings: rat, treatment begun after 14 days
Protocol: as §1, §2, §3, §4, §5

platelet aggregation = settings: described in EP-A-0 281,459; cited from earlier work
[4] = Bos taurus, Endothelial cell, 120 h

O=C(O)C(c1ccccc1Cl)N1CCc2sccc2C1 (single isomer, unassigned) [Compound 1]
IC50 [1, 4]: 600 nM

COC(=O)C(c1ccccc1Cl)N1CCc2sccc2C1 (single isomer, unassigned) [Compound 3]
IC50 [1]: 0.8 nM
angiogenesis-inhibiting activity ([2]; 5 mg/kg/day oral): still very active
effectiveness on height of granulation outgrowths ([2]; 5 mg/kg/day oral): remains effective
inhibition of height of the granulation outgrowths ([2]; 5 mg/kg/day oral): 50%
lowering of number of newly-formed vessels per outgrowth ([2]; 5 mg/kg/day oral): 50%
angiogenesis-inhibiting activity (comparison with compound No. 4) ([2]; 25 mg/kg/day oral): markedly more active than its homologue, the compound No. 4
inhibition of height of the granulation outgrowths ([2]; 25 mg/kg/day oral): 50%
lowering of number of newly-formed vessels per outgrowth ([2]; 25 mg/kg/day oral): 90%
quality of the granulation tissue ([2]; oral, dose not given): more loose-textured and disorganised
activity on regression of angiogenesis ([3]; 5 mg/kg/day): still very active
activity on regression of angiogenesis (comparison with compound No. 4) ([3]; 25 mg/kg/day): markedly more active than its homologue, the compound No. 4

COC(=O)C(c1ccccc1Cl)N1CCc2sccc2C1 (single isomer, unassigned) [Compound 4, laevorotatory isomer of methyl alpha-(4,5,6,7-tetrahydrothieno[3,2-c]pyrid-5-yl)-alpha-(2-chlorophenyl)acetate]
IC50 [1]: 3.7 nM
effectiveness on height of granulation outgrowths ([2]; 5 mg/kg/day oral): in contrast to the latter compound
inhibition of height of the granulation outgrowths ([2]; 25 mg/kg/day oral): 30%
lowering of number of newly-formed vessels per outgrowth ([2]; 25 mg/kg/day oral): 60%
platelet aggregation inhibition (platelet aggregation): inactive

COC(=O)C(c1ccccc1Cl)N1CCc2sccc2C1 (centres unmarked) [Compound 2]
IC50 [1, 4]: 2.3 nM

CCOC(=O)C(c1ccccc1Cl)N1CCc2sccc2C1 (centres unmarked) [Compound 5]
IC50 [1, 4]: 70 nM

CCCCOC(=O)C(c1ccccc1Cl)N1CCc2sccc2C1 (centres unmarked) [Compound 6]
IC50 [1, 4]: 220 nM
